Among the test systems are CAKI-1 renal; SK-MEL-28 melanoma; NCI-H226 lung; HOP-92 NSCLC; MOLT-4 leukemia; SK-MEL-2 melanoma; M14 melanoma; HT29 colon; UO-31 renal; IGROV1 ovarian.
Holding throughout (assay): NCI tumour cell line growth inhibition, 48 h

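Tested at 5 concentrations; 48 h exposure; 96-well plates; endpoints linearly interpolated, else capped at highest concentration. GI50 marks 50% less growth. TGI is the concentration that stops growth completely.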

Consider `S=C(Nc1ccc(-c2nc3ccccc3[nH]2)cc1)NC1CCCCC1`, for which the TGI is 55.2 µM in the experiment on CAKI-1 renal; 48.9 µM in the experiment with NCI-H226 lung; greater than 100 µM with MOLT-4 leukemia; 53.3 µM with M14 melanoma; greater than 100 µM in the experiment on HT29 colon; 71.6 µM with UO-31 renal. In addition, the GI50 with SK-MEL-28 melanoma is 30.6 µM; in the experiment with NCI-H226 lung, 19.6 µM; with HOP-92 NSCLC it was 35.3 µM; with MOLT-4 leukemia, 28.3 µM; in the experiment with SK-MEL-2 melanoma, 36.5 µM; in the experiment with M14 melanoma, 22.6 µM. The figures for the GI50 in the experiment on HT29 colon, in the experiment with UO-31 renal and with IGROV1 ovarian were 34.4 µM, 21.3 µM and 35.2 µM, respectively.
Regarding `COc1cc(-c2cnn(C)c2)ccc1Nc1ncc2ccnc(N[C@@H](C)C(C)(C)C)c2n1`, the GI50 with CAKI-1 renal was greater than 100 µM; with SK-MEL-28 melanoma it was greater than 100 µM; in the experiment on NCI-H226 lung, greater than 83.3 µM; in the experiment on HOP-92 NSCLC, greater than 56.7 µM; with MOLT-4 leukemia, greater than 69 µM; in the experiment with SK-MEL-2 melanoma it was greater than 100 µM. Also, the GI50 in the experiment with M14 melanoma was greater than 63.8 µM; with HT29 colon it was greater than 50.6 µM; in the experiment with UO-31 renal, greater than 100 µM; in the experiment on IGROV1 ovarian, greater than 100 µM. For the same compound, the TGI in the experiment on CAKI-1 renal, in the experiment with SK-MEL-28 melanoma, in the experiment with NCI-H226 lung, in the experiment with HOP-92 NSCLC, in the experiment on MOLT-4 leukemia and in the experiment with SK-MEL-2 melanoma was greater than 100 µM throughout. For the same compound, the TGI in the experiment with M14 melanoma, in the experiment on HT29 colon, with UO-31 renal and in the experiment with IGROV1 ovarian was greater than 100 µM each time.
Consider `Nc1nc(-c2cccc([N+](=O)[O-])c2)c(Br)c(=O)[nH]1`, for which the TGI in the experiment with CAKI-1 renal, in the experiment on SK-MEL-28 melanoma, in the experiment with NCI-H226 lung, in the experiment with HOP-92 NSCLC, in the experiment on MOLT-4 leukemia and with SK-MEL-2 melanoma was greater than 100 µM each time. Moreover, the TGI in the experiment on M14 melanoma was greater than 64.2 µM; in the experiment on HT29 colon it was greater than 100 µM; with UO-31 renal it was greater than 100 µM; with IGROV1 ovarian, greater than 100 µM.
As to `CCN(CC)CCNc1c(OC)cc(C)c2sc3ccccc3c(=O)c12`, the TGI stood at 20.6 µM with CAKI-1 renal; 5.1 µM in the experiment on SK-MEL-28 melanoma; 12.8 µM in the experiment with NCI-H226 lung; 32.2 µM in the experiment on HOP-92 NSCLC; 4.58 µM with MOLT-4 leukemia; 27.9 µM with SK-MEL-2 melanoma. The TGI is 12.1 µM with M14 melanoma, 6.42 µM in the experiment on HT29 colon, 20.3 µM in the experiment with UO-31 renal and 20.7 µM in the experiment on IGROV1 ovarian.
Turning to `COc1cc2nc(-c3ccc(C(F)(F)F)cc3)cc(OCCCN3CCOCC3)c2cc1OC`, the GI50 is 0.167 µM in the experiment with CAKI-1 renal; 1.44 µM in the experiment with SK-MEL-28 melanoma; 0.406 µM in the experiment on NCI-H226 lung; 1 µM with HOP-92 NSCLC; 2.51 µM in the experiment with MOLT-4 leukemia; 3.32 µM in the experiment with SK-MEL-2 melanoma. The GI50 was 0.355 µM in the experiment with M14 melanoma, 0.54 µM with HT29 colon, 1.77 µM in the experiment on UO-31 renal and 0.83 µM with IGROV1 ovarian. The TGI worked out at 11.2 µM in the experiment on CAKI-1 renal; 3.27 µM with SK-MEL-28 melanoma; 4.87 µM with NCI-H226 lung; 4.66 µM in the experiment on HOP-92 NSCLC; 14.9 µM in the experiment with MOLT-4 leukemia; 13.1 µM with SK-MEL-2 melanoma. The TGI in the experiment with M14 melanoma was determined as 1.55 µM; with HT29 colon, 15.7 µM; in the experiment with UO-31 renal it was 7.3 µM; with IGROV1 ovarian, 21.9 µM.
As to `O=c1oc2ccccc2c(O)c1/C=N\c1nc(-c2ccccc2)cs1`, the TGI in the experiment with CAKI-1 renal worked out at 12.2 µM; in the experiment with SK-MEL-28 melanoma, 31.1 µM; in the experiment on NCI-H226 lung, 23 µM; with HOP-92 NSCLC it was 25.2 µM; in the experiment on MOLT-4 leukemia, 7.03 µM; in the experiment on SK-MEL-2 melanoma, 36 µM. Besides, the TGI in the experiment with M14 melanoma worked out at 16.2 µM; with HT29 colon, 32 µM; with UO-31 renal, 20.4 µM; in the experiment with IGROV1 ovarian it was 27.8 µM.
As to `CC(=O)NC1=N/C(=C/c2cc([N+](=O)[O-])ccc2O)CN1C`, the TGI in the experiment on CAKI-1 renal, in the experiment with SK-MEL-28 melanoma, with NCI-H226 lung, in the experiment with HOP-92 NSCLC, in the experiment with MOLT-4 leukemia and in the experiment on SK-MEL-2 melanoma was greater than 100 µM throughout. Also, the TGI with M14 melanoma, with HT29 colon, in the experiment on UO-31 renal and in the experiment with IGROV1 ovarian was greater than 100 µM in each case.
With `CCOc1ccccc1NC(=O)/C=C1\NC(=O)CS1`, the TGI in the experiment on CAKI-1 renal, in the experiment with SK-MEL-28 melanoma, with NCI-H226 lung, with HOP-92 NSCLC, in the experiment with MOLT-4 leukemia and in the experiment with SK-MEL-2 melanoma was greater than 100 µM in each case. Further, the TGI in the experiment on M14 melanoma, in the experiment with HT29 colon, in the experiment with UO-31 renal and in the experiment with IGROV1 ovarian was greater than 100 µM throughout.
Take `COc1cc(OC)c(/C=C/c2ccc3ccccc3[n+]2C)c(OC)c1`: the GI50 with CAKI-1 renal is 8.55 µM; in the experiment on SK-MEL-28 melanoma it was 0.891 µM; in the experiment with NCI-H226 lung, 1.42 µM; with HOP-92 NSCLC, 0.951 µM; in the experiment with MOLT-4 leukemia it was 1.35 µM; with SK-MEL-2 melanoma, 1.13 µM. In addition, the GI50 was 1.22 µM in the experiment on M14 melanoma, 0.28 µM in the experiment with HT29 colon, 6.14 µM in the experiment on UO-31 renal and 1.21 µM in the experiment with IGROV1 ovarian. For the same compound, the TGI in the experiment with CAKI-1 renal was greater than 49.2 µM; in the experiment on SK-MEL-28 melanoma it was 3.62 µM; in the experiment with NCI-H226 lung it was 18.5 µM; in the experiment on HOP-92 NSCLC, 4.51 µM; in the experiment on MOLT-4 leukemia, 4.77 µM; with SK-MEL-2 melanoma, 3.06 µM. The TGI in the experiment on M14 melanoma was 5.01 µM; in the experiment on HT29 colon, 1.57 µM; in the experiment with UO-31 renal it was 54 µM; in the experiment on IGROV1 ovarian, 13.6 µM.
Regarding `CN1CCN(CCSC2Cc3cc(Cl)ccc3Sc3ccccc32)CC1` (stereo not given), the TGI in the experiment on CAKI-1 renal turned out to be 17.2 µM; in the experiment on SK-MEL-28 melanoma, 3.5 µM; in the experiment with NCI-H226 lung it was 31.4 µM; with HOP-92 NSCLC, 12.4 µM; in the experiment with MOLT-4 leukemia, 7.74 µM; with SK-MEL-2 melanoma, 3.75 µM. Further, the TGI was 3.66 µM in the experiment with M14 melanoma, 3.45 µM in the experiment on HT29 colon, 21.6 µM with UO-31 renal and 25.6 µM with IGROV1 ovarian.
As for `O=C1C(Br)=C[C@H]2C3C=CC(Br)(C3=O)[C@@H]12` (stereo not given in full), the TGI with CAKI-1 renal worked out at 24 µM; in the experiment on SK-MEL-28 melanoma, 25.7 µM; with NCI-H226 lung it was 40.9 µM; with HOP-92 NSCLC, 29.7 µM; in the experiment on MOLT-4 leukemia, 27.2 µM; in the experiment on SK-MEL-2 melanoma, 28.4 µM. Moreover, the TGI in the experiment with M14 melanoma was found to be 21.6 µM; in the experiment with HT29 colon it was 23.8 µM; in the experiment on UO-31 renal, 31.1 µM; with IGROV1 ovarian it was 29.4 µM.
Take `NC(=O)c1c[se]c(C2OC(CO)C(O)C2O)n1` (stereo not given): the TGI with CAKI-1 renal is greater than 100 µM; in the experiment on SK-MEL-28 melanoma, greater than 100 µM; with NCI-H226 lung, greater than 100 µM; in the experiment with HOP-92 NSCLC it was greater than 100 µM; in the experiment with MOLT-4 leukemia, greater than 49 µM; in the experiment with SK-MEL-2 melanoma, greater than 100 µM. Also, the TGI with M14 melanoma, in the experiment with HT29 colon, in the experiment on UO-31 renal and with IGROV1 ovarian was greater than 100 µM throughout.
On to `Cc1cc(S(=O)(=O)Nc2nc(N)nc(N3N=CCC3C)n2)c(S)cc1Cl` (stereo not given), for which the TGI in the experiment with CAKI-1 renal, in the experiment on SK-MEL-28 melanoma, with NCI-H226 lung, in the experiment on HOP-92 NSCLC, in the experiment with MOLT-4 leukemia and with SK-MEL-2 melanoma was greater than 10 µM each time. The TGI with M14 melanoma, with HT29 colon, with UO-31 renal and with IGROV1 ovarian was greater than 10 µM in each case.
As for `C=CCc1cc2cccc(OC)c2oc1=O`, the TGI in the experiment with CAKI-1 renal, in the experiment on SK-MEL-28 melanoma, with NCI-H226 lung, in the experiment on HOP-92 NSCLC, with MOLT-4 leukemia and with SK-MEL-2 melanoma was greater than 100 µM in each case. Besides, the TGI was greater than 100 µM in the experiment on M14 melanoma, greater than 100 µM with HT29 colon, 69.2 µM in the experiment with UO-31 renal and greater than 100 µM with IGROV1 ovarian.
For the compound `Clc1nc(Oc2ccccc2)nc(-c2cn(-c3ccccc3)c3ccccc23)n1`, the GI50 with CAKI-1 renal is 5.69 µM; in the experiment with SK-MEL-28 melanoma it was 3.92 µM; in the experiment with NCI-H226 lung, 33.5 µM; in the experiment on HOP-92 NSCLC, 4.07 µM; in the experiment with MOLT-4 leukemia, 0.79 µM; with SK-MEL-2 melanoma it was 4.66 µM. For the same compound, the GI50 in the experiment with M14 melanoma was 5.32 µM; with HT29 colon, 3.36 µM; in the experiment with UO-31 renal, 3.04 µM; in the experiment with IGROV1 ovarian it was 2.45 µM. In addition, the TGI is 12.9 µM with CAKI-1 renal; 12.1 µM in the experiment with SK-MEL-28 melanoma; greater than 62.2 µM in the experiment on NCI-H226 lung; 20.7 µM in the experiment on HOP-92 NSCLC; 21.9 µM in the experiment on MOLT-4 leukemia; 18.5 µM in the experiment on SK-MEL-2 melanoma. Besides, the TGI with M14 melanoma was determined as 17.1 µM; in the experiment with HT29 colon, 11.5 µM; in the experiment with UO-31 renal, 7.95 µM; in the experiment on IGROV1 ovarian, 6.26 µM.
For the compound `CCC(=O)c1cn(C)c(=O)c2ccccc12`, the TGI in the experiment with CAKI-1 renal, in the experiment with SK-MEL-28 melanoma, in the experiment with NCI-H226 lung, in the experiment on HOP-92 NSCLC, with MOLT-4 leukemia and with SK-MEL-2 melanoma was greater than 100 µM throughout. In addition, the TGI in the experiment with M14 melanoma, in the experiment with HT29 colon, with UO-31 renal and with IGROV1 ovarian was greater than 100 µM throughout.
For `CC(=O)O/N=C/c1ncccc1CO`, the TGI in the experiment on CAKI-1 renal, with SK-MEL-28 melanoma, in the experiment with NCI-H226 lung, in the experiment on HOP-92 NSCLC, with MOLT-4 leukemia and in the experiment on SK-MEL-2 melanoma was greater than 100 µM each time. Moreover, the TGI in the experiment on M14 melanoma, with HT29 colon, with UO-31 renal and in the experiment with IGROV1 ovarian was greater than 100 µM throughout.

For the origin of these results see PubChem BioAssay (NCI).
